ChEMBL document CHEMBL1201862, “PubChem BioAssay data set” (2004)
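Following 48 hours of exposure in 96-well plates, responses at five concentrations were used to interpolate endpoints linearly. GI50 = concentration required for 50% inhibition of growth.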 The source made the active and inactive calls. No stated cut-off is given here; in the data, active = GI50 up to about 1.1 µM and inactive = higher.

Key:
Assay in all cases: NCI-60 cell line screen, 48 h
NCI-H226 = tested on: NCI-H226
UACC-257 = tested on: UACC-257
CCRF-CEM = tested on: CCRF-CEM
PC-3 = tested on: PC-3
DU-145 = tested on: DU-145
NCI-H23 = tested on: NCI-H23
IGROV-1 = tested on: IGROV-1
CAKI-1 = tested on: CAKI-1
Hs-578T = tested on: Hs-578T
786-0 = tested on: 786-0
A549 = tested on: A549
LOX IMVI = tested on: LOX IMVI
MCF7 = tested on: MCF7
SK-MEL-28 = tested on: SK-MEL-28
MDA-N = tested on: MDA-N
M14 = tested on: M14
EKVX = tested on: EKVX
T47D = tested on: T47D
K562 = tested on: K562
SK-MEL-2 = tested on: SK-MEL-2
SF-295 = tested on: SF-295
RXF 393 = tested on: RXF 393
OVCAR-4 = tested on: OVCAR-4
A498 = tested on: A498
MDA-MB-231 = tested on: MDA-MB-231
HCT-116 = tested on: HCT-116
SF-539 = tested on: SF-539
HL-60 = tested on: HL-60
TK-10 = tested on: TK-10
SNB-75 = tested on: SNB-75
SK-MEL-5 = tested on: SK-MEL-5
SW-620 = tested on: SW-620
HOP-92 = tested on: HOP-92
HT-29 = tested on: HT-29
OVCAR-5 = tested on: OVCAR-5
HCT-15 = tested on: HCT-15
SF-268 = tested on: SF-268
ACHN = tested on: ACHN
SK-OV-3 = tested on: SK-OV-3
MDA-MB-435 = tested on: MDA-MB-435
KM12 = tested on: KM12
MOLT-4 = tested on: MOLT-4
BT-549 = tested on: BT-549
UO-31 = tested on: UO-31
OVCAR-3 = tested on: OVCAR-3
COLO 205 = tested on: COLO 205
SN12C = tested on: SN12C
UACC-62 = tested on: UACC-62
NCI-H522 = tested on: NCI-H522
OVCAR-8 = tested on: OVCAR-8
NCI-H460 = tested on: NCI-H460
RPMI-8226 = tested on: RPMI-8226
NCI/ADR-RES = tested on: NCI/ADR-RES
Malme-3M = tested on: Malme-3M
SR = tested on: SR
U-251 = tested on: U-251
HOP-62 = tested on: HOP-62
SNB-19 = tested on: SNB-19

Measured: GI50

CSc1ncnc2c1ncn2CC(=O)C1CCC2C3CCC4=CC(=O)CCC4(C)C3CCC12C (stereo not drawn)
active: CCRF-CEM 0.729 µM | HL-60 0.28 µM | UO-31 0.757 µM
inactive: NCI-H226 5.85 µM | UACC-257 2.05 µM | PC-3 2.57 µM | DU-145 13.9 µM | NCI-H23 3.79 µM | IGROV-1 6.95 µM | CAKI-1 10 µM | Hs-578T 19.1 µM | 786-0 11 µM | A549 6.81 µM | LOX IMVI 4.38 µM | MCF7 3.08 µM | SK-MEL-28 5.47 µM | MDA-N 3.07 µM | M14 2.4 µM | EKVX 5.55 µM | T47D 1.91 µM | K562 3.47 µM | SK-MEL-2 2.98 µM | SF-295 3.21 µM | RXF 393 12 µM | OVCAR-4 3.49 µM | A498 5.13 µM | MDA-MB-231 6.64 µM | HCT-116 4.15 µM | SF-539 8.41 µM | TK-10 4.46 µM | SNB-75 5.19 µM | SK-MEL-5 2.04 µM | SW-620 9.16 µM | HOP-92 14.8 µM | HT-29 3.76 µM | OVCAR-5 23.9 µM | SF-268 14.6 µM | ACHN 4.97 µM | SK-OV-3 16.3 µM | MDA-MB-435 2.96 µM | KM12 2.84 µM | MOLT-4 1.69 µM | BT-549 2.58 µM | OVCAR-3 4.25 µM | COLO 205 3.41 µM | SN12C 18.3 µM | UACC-62 3.21 µM | NCI-H522 3.61 µM | OVCAR-8 3.53 µM | NCI-H460 4.35 µM | RPMI-8226 1.45 µM | NCI/ADR-RES 2.5 µM | Malme-3M 7.16 µM | SR 2.16 µM | U-251 7.62 µM | HOP-62 2.42 µM | SNB-19 19.2 µM
4.56 µM: HCT-15
